From ChEMBL document CHEMBL1201862, “PubChem BioAssay data set” (2004)
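Step 1: Grow cells in 96-well plates. Step 2: Expose to compound for 48 hours at 5 concentrations. Step 3: Interpolate endpoints linearly; if unreached, use highest concentration. The concentration for 50% growth inhibition is given as GI50.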 Activity calls are given as the source filed them. Rule as the data show it: active = GI50 up to about 1.1 µM and inactive = higher.

Key:
Test in all cases: NCI tumour cell line growth inhibition, 48 h
[1] = test system: Malme-3M
[2] = test system: NCI-H522
[3] = test system: OVCAR-5
[4] = test system: DU-145
[5] = test system: SF-268
[6] = test system: MDA-N
[7] = test system: LOX IMVI
[8] = test system: HOP-62
[9] = test system: SK-OV-3
[10] = test system: RPMI-8226
[11] = test system: OVCAR-4
[12] = test system: RXF 393
[13] = test system: ACHN
[14] = test system: KM12
[15] = test system: MDA-MB-435
[16] = test system: HL-60
[17] = test system: HCT-15
[18] = test system: HOP-92
[19] = test system: UACC-62
[20] = test system: CAKI-1
[21] = test system: K562
[22] = test system: MOLT-4
[23] = test system: HCT-116
[24] = test system: OVCAR-8
[25] = test system: IGROV-1
[26] = test system: TK-10
[27] = test system: SR
[28] = test system: NCI-H23
[29] = test system: T47D
[30] = test system: HT-29
[31] = test system: EKVX
[32] = test system: BT-549
[33] = test system: NCI/ADR-RES
[34] = test system: SF-295
[35] = test system: M14
[36] = test system: CCRF-CEM
[37] = test system: SW-620
[38] = test system: OVCAR-3
[39] = test system: UACC-257
[40] = test system: UO-31
[41] = test system: SNB-19
[42] = test system: PC-3
[43] = test system: Hs-578T
[44] = test system: SNB-75
[45] = test system: SN12C
[46] = test system: COLO 205
[47] = test system: A549
[48] = test system: SK-MEL-2
[49] = test system: NCI-H460
[50] = test system: SK-MEL-28
[51] = test system: NCI-H226
[52] = test system: SK-MEL-5
[53] = test system: U-251
[54] = test system: MCF7
[55] = test system: 786-0
[56] = test system: A498
[57] = test system: HCC 2998

## Clc1ccc(/N=c2\oc3ccccc3cc2-c2nc3ccccc3[nH]2)c(Cl)c1
[1]
  GI50: > 100 µM (inactive)
[2]
  GI50: 78.5 µM (inactive)
[3]
  GI50: > 100 µM (inactive)
[4]
  GI50: > 100 µM (inactive)
[5]
  GI50: 24.2 µM (inactive)
[6]
  GI50: 83.6 µM (inactive)
[7]
  GI50: > 100 µM (inactive)
[8]
  GI50: 24.3 µM (inactive)
[9]
  GI50: 49.9 µM (inactive)
[10]
  GI50: > 100 µM (inactive)
[11]
  GI50: > 100 µM (inactive)
[12]
  GI50: 18.6 µM (inactive)
[13]
  GI50: 31 µM (inactive)
[14]
  GI50: > 100 µM (inactive)
[15]
  GI50: > 100 µM (inactive)
[16]
  GI50: > 100 µM (inactive)
[17]
  GI50: > 100 µM
[18]
  GI50: 43.6 µM (inactive)
[19]
  GI50: 24.6 µM (inactive)
[20]
  GI50: > 100 µM (inactive)
[21]
  GI50: > 100 µM (inactive)
[22]
  GI50: > 100 µM (inactive)
[23]
  GI50: > 100 µM (inactive)
[24]
  GI50: > 100 µM (inactive)
[25]
  GI50: > 100 µM (inactive)
[26]
  GI50: 23.8 µM (inactive)
[27]
  GI50: > 100 µM (inactive)
[28]
  GI50: 78.5 µM (inactive)
[29]
  GI50: > 100 µM (inactive)
[30]
  GI50: > 100 µM (inactive)
[31]
  GI50: 51.2 µM (inactive)
[32]
  GI50: > 100 µM (inactive)
[33]
  GI50: > 100 µM (inactive)
[34]
  GI50: > 100 µM (inactive)
[35]
  GI50: > 100 µM (inactive)
[36]
  GI50: > 100 µM (inactive)
[37]
  GI50: > 100 µM (inactive)
[38]
  GI50: > 100 µM (inactive)
[39]
  GI50: > 100 µM (inactive)
[40]
  GI50: > 100 µM (inactive)
[41]
  GI50: > 100 µM (inactive)
[42]
  GI50: > 100 µM (inactive)
[43]
  GI50: 34.2 µM (inactive)

## CCCCS(=O)(=O)CCC(N)P(=O)(O)O (configuration not stated)
[1]
  GI50: > 100 µM (inactive)
[2]
  GI50: > 100 µM (inactive)
[3]
  GI50: > 100 µM (inactive)
[44]
  GI50: > 100 µM (inactive)
[4]
  GI50: > 100 µM (inactive)
[5]
  GI50: > 100 µM (inactive)
[45]
  GI50: > 100 µM (inactive)
[46]
  GI50: > 100 µM (inactive)
[47]
  GI50: > 100 µM (inactive)
[6]
  GI50: > 100 µM (inactive)
[7]
  GI50: > 100 µM (inactive)
[48]
  GI50: > 100 µM (inactive)
[8]
  GI50: > 100 µM (inactive)
[9]
  GI50: > 100 µM (inactive)
[10]
  GI50: > 100 µM (inactive)
[11]
  GI50: > 100 µM (inactive)
[49]
  GI50: > 100 µM (inactive)
[13]
  GI50: > 100 µM (inactive)
[14]
  GI50: > 100 µM (inactive)
[15]
  GI50: > 100 µM (inactive)
[16]
  GI50: > 100 µM (inactive)
[17]
  GI50: > 100 µM
[18]
  GI50: > 100 µM (inactive)
[50]
  GI50: > 100 µM (inactive)
[19]
  GI50: > 100 µM (inactive)
[20]
  GI50: > 100 µM (inactive)
[21]
  GI50: > 100 µM (inactive)
[51]
  GI50: > 100 µM (inactive)
[22]
  GI50: > 100 µM (inactive)
[23]
  GI50: > 100 µM (inactive)
[24]
  GI50: > 100 µM (inactive)
[25]
  GI50: > 100 µM (inactive)
[26]
  GI50: > 100 µM (inactive)
[27]
  GI50: > 100 µM (inactive)
[52]
  GI50: > 100 µM (inactive)
[28]
  GI50: > 100 µM (inactive)
[53]
  GI50: > 100 µM (inactive)
[29]
  GI50: > 100 µM (inactive)
[30]
  GI50: > 100 µM (inactive)
[31]
  GI50: > 100 µM (inactive)
[32]
  GI50: > 100 µM (inactive)
[33]
  GI50: > 100 µM (inactive)
[34]
  GI50: > 100 µM (inactive)
[54]
  GI50: > 100 µM (inactive)
[55]
  GI50: > 100 µM (inactive)
[35]
  GI50: > 100 µM (inactive)
[36]
  GI50: > 100 µM (inactive)
[37]
  GI50: > 100 µM (inactive)
[38]
  GI50: > 100 µM (inactive)
[39]
  GI50: > 100 µM (inactive)
[40]
  GI50: > 100 µM (inactive)
[41]
  GI50: > 100 µM (inactive)
[42]
  GI50: > 100 µM (inactive)
[43]
  GI50: > 100 µM (inactive)

## O=C(/C=C/c1cccc([N+](=O)[O-])c1)N1CCN(CCOC(c2ccccc2)c2ccccc2)CC1
[1]
  GI50: 31.8 µM (inactive)
[56]
  GI50: 50.7 µM (inactive)
[2]
  GI50: 24.5 µM (inactive)
[3]
  GI50: > 100 µM (inactive)
[44]
  GI50: 54.2 µM (inactive)
[4]
  GI50: 47.3 µM (inactive)
[57]
  GI50: 23.7 µM (inactive)
[45]
  GI50: 57.5 µM (inactive)
[46]
  GI50: 21.7 µM (inactive)
[47]
  GI50: 45.7 µM (inactive)
[6]
  GI50: 37.3 µM (inactive)
[7]
  GI50: 22.9 µM (inactive)
[8]
  GI50: > 100 µM (inactive)
[9]
  GI50: > 100 µM (inactive)
[10]
  GI50: 12.3 µM (inactive)
[11]
  GI50: 29.9 µM (inactive)
[12]
  GI50: 34.4 µM (inactive)
[49]
  GI50: 25.9 µM (inactive)
[13]
  GI50: 34.5 µM (inactive)
[14]
  GI50: 26.9 µM (inactive)
[15]
  GI50: 33.4 µM (inactive)
[17]
  GI50: 31.1 µM
[18]
  GI50: 16.6 µM (inactive)
[50]
  GI50: 25.9 µM (inactive)
[19]
  GI50: 33.8 µM (inactive)
[20]
  GI50: > 100 µM (inactive)
[21]
  GI50: 19.4 µM (inactive)
[22]
  GI50: 12.4 µM (inactive)
[23]
  GI50: 18.6 µM (inactive)
[24]
  GI50: 30.6 µM (inactive)
[25]
  GI50: 42.6 µM (inactive)
[26]
  GI50: 22.7 µM (inactive)
[27]
  GI50: 16.1 µM (inactive)
[52]
  GI50: 14.9 µM (inactive)
[28]
  GI50: 43.6 µM (inactive)
[29]
  GI50: 17.9 µM (inactive)
[30]
  GI50: 19.2 µM (inactive)
[31]
  GI50: > 100 µM (inactive)
[32]
  GI50: 27.4 µM (inactive)
[33]
  GI50: 48.6 µM (inactive)
[34]
  GI50: 56.8 µM (inactive)
[54]
  GI50: 27.9 µM (inactive)
[55]
  GI50: 38.2 µM (inactive)
[35]
  GI50: 32.9 µM (inactive)
[36]
  GI50: 28.4 µM (inactive)
[37]
  GI50: 38.9 µM (inactive)
[38]
  GI50: 66.1 µM (inactive)
[39]
  GI50: 32.4 µM (inactive)
[40]
  GI50: 33.1 µM (inactive)
[41]
  GI50: > 100 µM (inactive)
